Reference: ChEMBL document CHEMBL1138610, “Peganine hydrochloride dihydrate an orally active antileishmanial agent” (Bioorg Med Chem Lett, 2009)
Values after ≈ are worked out from the molar mass of the structure shown. Active and inactive are the calls of the source. The rule behind the calls is not given here.

Tests used:
[1] = system: Leishmania donovani; experiment: Antileishmanial activity against Leishmania donovani amastigote infected in mouse J774A1 cells expressing green fluorescence protein by flow cytometry; type: functional, organism-based; conditions: J774.A1
[2] = system: Leishmania donovani; experiment: Antileishmanial activity against Leishmania donovani promastigotes assessed as inhibition of parasite multiplication at 10 ug/ml; type: functional; parameters: scale not given: the % may be the effect or the level left
[3] = system: Leishmania donovani; experiment: Antileishmanial activity against Leishmania donovani amastigote infected in mouse J774A1 cells expressing green fluorescence protein assessed as decrease in mean fluorescence intensity at 30 to 100 ug/ml; type: functional, organism-based; conditions: J774.A1
[4] = system: Leishmania donovani; experiment: Antileishmanial activity against Leishmania donovani infected in hamster assessed inhibition of parasite growth at 200 mg/kg, po after 5 days; type: functional; parameters: scale not given: the % may be the effect or the level left
[5] = system: Leishmania donovani; experiment: Antileishmanial activity against Leishmania donovani promastigotes expressing green fluorescence protein by flow cytometry; type: functional
[6] = system: Leishmania donovani; experiment: Antileishmanial activity against Leishmania donovani infected in hamster assessed inhibition of parasite growth at 40 mg/kg, po after 5 days; type: functional; parameters: scale not given: the % may be the effect or the level left
[7] = system: J774.A1; experiment: Cytotoxicity against mouse J774A1 cells at 200 uM after 48 hrs by MTT assay; type: cell-based; conditions: j774.a1, 48 h
[8] = system: Leishmania donovani; experiment: Antileishmanial activity against Leishmania donovani promastigotes expressing green fluorescence protein assessed as decrease in mean fluorescence intensity; type: functional, organism-based
[9] = system: Leishmania donovani; experiment: Antileishmanial activity against Leishmania donovani infected in hamster assessed inhibition of parasite growth at 100 mg/kg, po after 5 days; type: functional; parameters: scale not given: the % may be the effect or the level left
[10] = system: Leishmania donovani; experiment: Antileishmanial activity against Leishmania donovani infected in hamster assessed inhibition of parasite growth at 50 mg/kg, po after 5 days; type: functional, organism-based; parameters: dose 50 mg/kg
[11] = system: Leishmania donovani; experiment: Antileishmanial activity against Leishmania donovani amastigote infected in mouse J774A1 cells expressing green fluorescence protein assessed as decrease in mean fluorescence intensity up to 25 ug/ml; type: functional, organism-based; conditions: J774.A1

Compound | IC50 [1] | Activity [2] | Activity [3] | Activity [4] | Activity [5] | IC90 [1] | Activity [6] | Activity [7] | Activity [8] | IC50 [8] | IC90 [8] | Activity [9] | Activity [10] | Activity [11]
CCCCCCCCCCCCCCCCOP(=O)([O-])OCC[N+](C)(C)C [MILTEFOSINE] | 5 µg/mL (≈ 12.3 µM) | 50% | – | – | – | – | – | – | – | – | – | – | – | –
Cl.OC1CCN2Cc3ccccc3N=C12 (stereo not given) [PEGANINE HYDROCHLORIDE] | 41 µg/mL | – | Active | 87.5% | 50% | 85 µg/mL | 95.5% | Non-toxic | Dose-dependent effect | 38 µg/mL | 75 µg/mL | 79.6% | inactive | Active
